# Test results reported in patent publication US10123998B2, “Kinase modulation, and indications therefor” (Plexxikon Inc., priority 2012, dated 2018).
# Tested on: Osteoclast precursor cells
# Assay: Osteoclast differentiation assay
# Type: cell-based
# Description: Further, an osteoclast differentiation assay is used to assess the efficacy of Fms inhibitors for treating bone disease such as osteoarthritis. On day 0, Osteoclast Medium BulletKit (Lonza catalog # PT-8001, containing Media, FBS, L-Glutamine, PenStrep, RANKL, and M-CSF) media is thawed and the FBS, L-glutamine and PenStrep from the kit is added to 100 mL of Osteoclast Precursor Basal medium to provide the Osteoclast Precursor Growth Medium (OPGM). This is warmed to 37° C. Osteoclast precursor cells (Lonza catalog #2T-110) frozen in cryovial are warmed to 37° C. and transferred to a 50 mL conical tube. The cryovial is rinsed with OPGM and added dropwise to the conical tube of cells with swirling, then the volume is adjusted to 20-30 mL with addition of OPGM. The cells are centrifuged at 200×g for 15 minutes at room temperature and all but approximately 3 mL of supernatant is removed to a new conical tube. The cells are suspended in the remaining supernatant and the volume is adjusted to 10-15 mL with OPGM added dropwise with swirling. The cells are centrifuged at 200×g for 15 minutes at room temperature and all but approximately 1 mL of supernatant is removed. The cells are resuspended in the remaining supernatant, counted, and the volume adjusted with an appropriate amount of OPGM to provide approximately 1×10^5 cells/mL. A 0.1 mL aliquot of cells is added to each well of a 96-well plate. Compound to be tested is prepared in DMSO for plating at a high concentration of 2.5 mM, with 8 point 1:3 serial dilutions. A 1 μL aliquot of each compound dilution is added to a 96 well v-bottom polypropylene plate and 0.124 mL of OPGM is added to the compound. Then 50 μL of the compound in OPGM is added to the osteoclast precursor cells in 96-well plate (providing highest test concentration of 5 μM). RANKL (2 μg) from the BulletKit is reconstituted in 1 mL of OPGM, then vortexed and centrifuged briefly. A 792 μL aliquot of RANKL is added to 6 mL of OPGM and 50 μL is added to low control wells. Then 76.6 μL M-CSF ([…]) from the BulletKit is added to the remaining 5.8 mL of OPGM/RANKL solution (4×RANKL/M-CSF/OPGM). A 50 μL aliquot of this is added to the remaining wells, and the remainder is stored at 4° C. for later use. The plate is incubated at 37° C. for 6 days, then the remaining OPGM/RANKL/M-CSF solution is warmed to 37° C. The remaining approximately 198 μL is combined with 6 mL of OPGM. The media is aspirated from the osteoclast wells and 100 μL of RANKL/OPGM is added to the low controls. The remaining RANKL/OPGM is combined with the approximately 18.5 μL of remaining M-CSF. The remaining 4×RANKL/M-CSF/OPGM from day 0 is diluted to 1× and combined with the freshly prepared solution. A 0.1 mL aliquot of this is added to each osteoclast well and incubated for 37° C. for 1 day. The Acid Phosphatase kit (Cayman Chemical catalog #10008051) is warmed to room temperature. The assay buffer is diluted 5 mL with 45 mL of water. For each plate, two substrate tablets are dissolved in 4.5 mL of the assay buffer, mixing by vortex to break up the tablet. Stop solution is diluted 12 mL with 36 mL of water. In a tissue culture hood, 20 μL of each osteoclast well supernatant is transferred to a 96 well plate. A 30 μL aliquot of the substrate solution is added to each well and incubated at 37° C. for 20 minutes, then added […] stop solution to each well. The absorbance of each well is read at 405 nm on Safire plate reader. The absorbance reading is plotted vs. concentration to provide the IC50 for each compound.
row,Compound,IC50 [nM]
1,"Clc1cnc2[nH]cc(Cc3ccc(NCc4ccc(Cl)nc4)nc3)c2c1 [Compound P-2003, (6-Chloro-pyridin-3-ylmethyl)-[5-(5-chloro-1H-pyrrolo[2,3-b]pyridin-3-ylmethyl)-pyridin-2-yl]-amine]",< 100
2,"COc1ncccc1CNc1ccc(Cc2c[nH]c3ncccc23)c(F)n1 [Compound P-2045, [6-Fluoro-5-(1H-pyrrolo[2,3-b]pyridin-3-ylmethyl)-pyridin-2-yl]-(2-methoxy-pyridin-3-ylmethyl)-amine]",< 100
3,"COc1ncccc1CNc1ccc(Cc2c[nH]c3ncc(C)cc23)c(F)n1 [Compound P-2052, [6-Fluoro-5-(5-methyl-1H-pyrrolo[2,3-b]pyridin-3-ylmethyl)-pyridin-2-yl]-(2-methoxy-pyridin-3-ylmethyl)-amine]",< 100
4,"FC(F)(F)c1ccncc1CNc1ccc(Cc2c[nH]c3ncc(Cl)cc23)cn1 [Compound P-2063, [5-(5-Chloro-1H-pyrrolo[2,3-b]pyridin-3-ylmethyl)-pyridin-2-yl]-(4-trifluoromethyl-pyridin-3-ylmethyl)-amine]",< 100
5,"COc1cnc2[nH]cc(Cc3ccc(NCc4cncc(F)c4)nc3F)c2c1 [Compound P-2028, [6-Fluoro-5-(5-methoxy-1H-pyrrolo[2,3-b]pyridin-3-ylmethyl)-pyridin-2-yl]-(5-fluoro-pyridin-3-ylmethyl)-amine]",< 100
6,"Cn1cc(F)cc(CNc2ncc(Cc3c[nH]c4ncc(Cl)cc34)cn2)c1=O [Compound P-2157, 3-{[5-(5-Chloro-1H-pyrrolo[2,3-b]pyridin-3-ylmethyl)-pyrimidin-2-ylamino]-methyl}-5-fluoro-1-methyl-1H-pyridin-2-one]",< 100
7,"COc1ccc(CNc2ncc(Cc3c[nH]c4ncc(C)cc34)cn2)cn1 [Compound P-2057, (6-Methoxy-pyridin-3-ylmethyl)-[5-(5-methyl-1H-pyrrolo[2,3-b]pyridin-3-ylmethyl)-pyrimidin-2-yl]-amine]",< 100
8,"COc1ccnc2[nH]cc(Cc3ccc(NCc4ccc(Cl)cc4)nc3F)c12 [Compound P-2037, (4-Chloro-benzyl)-[6-fluoro-5-(4-methoxy-1H-pyrrolo[2,3-b]pyridin-3-ylmethyl)-pyridin-2-yl]-amine]",< 100
9,"COc1ccc(CNc2ccc(Cc3c[nH]c4ncc(C)cc34)c(F)n2)cn1 [Compound P-2029, [6-Fluoro-5-(5-methyl-1H-pyrrolo[2,3-b]pyridin-3-ylmethyl)-pyridin-2-yl]-(6-methoxy-pyridin-3-ylmethyl)-amine]",< 100
10,"COc1cnc2[nH]cc(Cc3ccc(NCc4ccc(OC)nc4)nc3F)c2c1 [Compound P-2030, [6-Fluoro-5-(5-methoxy-1H-pyrrolo[2,3-b]pyridin-3-ylmethyl)-pyridin-2-yl]-(6-methoxy-pyridin-3-ylmethyl)-amine]",< 100
11,"Fc1ccc(CNc2ccc(Cc3c[nH]c4ncc(Cl)cc34)cn2)cn1 [Compound P-2004, [5-(5-Chloro-1H-pyrrolo[2,3-b]pyridin-3-ylmethyl)-pyridin-2-yl]-(6-fluoro-pyridin-3-ylmethyl)-amine]",< 100

# Other lines, results leading:
row,IC50 [nM],Compound
1,< 100,"Cc1cnc2[nH]cc(Cc3ccc(NCc4ccc(C(F)(F)F)nc4)nc3)c2c1 [Compound P-2019, [5-(5-Methyl-1H-pyrrolo[2,3-b]pyridin-3-ylmethyl)-pyridin-2-yl]-(6-trifluoromethyl-pyridin-3-ylmethyl)-amine]"
2,< 100,"COc1ncc(F)cc1CNc1ncc(Cc2c[nH]c3ncc(C)cc23)cn1 [Compound P-2061, (5-Fluoro-2-methoxy-pyridin-3-ylmethyl)-[5-(5-methyl-1H-pyrrolo[2,3-b]pyridin-3-ylmethyl)-pyrimidin-2-yl]-amine]"
3,< 100,"Fc1cncc(CNc2ncc(Cc3c[nH]c4ncc(Cl)cc34)cn2)c1 [Compound P-2176, [5-(5-Chloro-1H-pyrrolo[2,3-b]pyridin-3-ylmethyl)-pyrimidin-2-yl]-(5-fluoro-pyridin-3-ylmethyl)-amine]"
4,< 100,"COc1ncc(F)cc1CNc1ccc(Cc2c[nH]c3ncc(C#N)cc23)c(F)n1 [Compound P-2193, 3-{2-Fluoro-6-[(5-fluoro-2-methoxy-pyridin-3-ylmethyl)-amino]-pyridin-3-ylmethyl}-1H-pyrrolo[2,3-b]pyridine-5-carbonitrile]"
5,< 100,"COc1ncc(CNc2ccc(Cc3c[nH]c4ncc(Cl)cc34)c(F)n2)cc1F [Compound P-2165, [5-(5-Chloro-1H-pyrrolo[2,3-b]pyridin-3-ylmethyl)-6-fluoro-pyridin-2-yl]-(5-fluoro-6-methoxy-pyridin-3-ylmethyl)-amine]"
6,< 100,"COc1ncc(F)cc1CNc1ncc(Cc2c[nH]c3ncc(Cl)cc23)cn1 [Compound P-2064, [5-(5-Chloro-1H-pyrrolo[2,3-b]pyridin-3-ylmethyl)-pyrimidin-2-yl]-(5-fluoro-2-methoxy-pyridin-3-ylmethyl)-amine]"
7,< 100,"Cc1cnc2[nH]cc(Cc3ccc(NCc4ccc(C(F)(F)F)nc4)nc3F)c2c1 [Compound P-2031, [6-Fluoro-5-(5-methyl-1H-pyrrolo[2,3-b]pyridin-3-ylmethyl)-pyridin-2-yl]-(6-trifluoromethyl-pyridin-3-ylmethyl)-amine]"
8,< 100,"Cc1cnc2[nH]cc(Cc3ccc(NCc4cnccc4C(F)(F)F)nc3)c2c1 [Compound P-2070, [5-(5-Methyl-1H-pyrrolo[2,3-b]pyridin-3-ylmethyl)-pyridin-2-yl]-(4-trifluoromethyl-pyridin-3-ylmethyl)-amine]"
9,< 100,"COc1ncc(F)cc1CNc1ccc(Cc2c[nH]c3ncc(C)cc23)c(F)n1 [Compound P-2049, (5-Fluoro-2-methoxy-pyridin-3-ylmethyl)-[6-fluoro-5-(5-methyl-1H-pyrrolo[2,3-b]pyridin-3-ylmethyl)-pyridin-2-yl]-amine]"
10,< 100,"COc1ccc(CNc2ncc(Cc3c[nH]c4ncc(C)cc34)cc2C)cn1 [Compound P-1554, (6-Methoxy-pyridin-3-ylmethyl)-[3-methyl-5-(5-methyl-1H-pyrrolo[2,3-b]pyridin-3-ylmethyl)-pyridin-2-yl]-amine]"
11,< 100,"COc1cnc2[nH]cc(Cc3ccc(NCc4ccc(Cl)cc4)nc3F)c2c1 [Compound P-2032, (4-Chloro-benzyl)-[6-fluoro-5-(5-methoxy-1H-pyrrolo[2,3-b]pyridin-3-ylmethyl)-pyridin-2-yl]-amine]"
12,< 100,"Cc1cnc2[nH]cc(Cc3cnc(NCc4ccc(C(F)(F)F)nc4)c(F)c3)c2c1 [Compound P-2146, [3-Fluoro-5-(5-methyl-1H-pyrrolo[2,3-b]pyridin-3-ylmethyl)-pyridin-2-yl]-(6-trifluoromethyl-pyridin-3-ylmethyl)-amine]"
13,< 100,"COc1ccc(CNc2ncc(Cc3c[nH]c4ncc(Cl)cc34)cn2)cn1 [Compound P-2038, [5-(5-Chloro-1H-pyrrolo[2,3-b]pyridin-3-ylmethyl)-pyrimidin-2-yl]-(6-methoxy-pyridin-3-ylmethyl)-amine]"
14,< 100,"Fc1cncc(CNc2ccc(Cc3c[nH]c4ncc(Cl)cc34)c(F)n2)c1 [Compound P-2001, [5-(5-Chloro-1H-pyrrolo[2,3-b]pyridin-3-ylmethyl)-6-fluoro-pyridin-2-yl]-(5-fluoro-pyridin-3-ylmethyl)-amine]"
15,< 100,"COc1cnc2[nH]cc(Cc3cnc(NCc4ccc(C(F)(F)F)nc4)c(F)c3)c2c1 [Compound P-2147, [3-Fluoro-5-(5-methoxy-1H-pyrrolo[2,3-b]pyridin-3-ylmethyl)-pyridin-2-yl]-(6-trifluoromethyl-pyridin-3-ylmethyl)-amine]"
